According to patent US12643881B2, “Bicyclic amine CDK12 inhibitors” (Incyte Corporation, priority 2021, dated 2026):

Each molecule was assayed against T1, CDK12 complexed with Cyclin K (Homo sapiens, UniProt Q9NYV4) (assay: CDK Enzymatic Assays (HTRF, LANCE Ultra kinase assay), Example A1). Details: enzyme pre-incubated with compounds for 60 minutes prior to addition of ATP (1 mM final) and Ulight-peptide; reaction 60-90 minutes at room temperature.
T1 construct: GST (N)
Assay type: biochemical
Excerpt: Example A1. CDK Enzymatic Assays
The following activity of the CDK enzymes in complex with their respective cyclins we assayed: CDK1 complexed with Cyclin B1; CDK2 complexed with Cyclin E1; CDK4 complexed with Cyclin D1; CDK6 complexed with Cyclin D1; CDK6 complexed with Cyclin D3; CDK9 complexed with Cyclin T1; CDK7 complexed with Cyclin H/MAT1; CDK2 complexed with Cyclin A2; CDK5 complexed with p35; CDK12 complexed with Cyclin K; CDK13 complexed with Cyclin K. These in vitro enzyme activity are assayed using homogeneous time-resolved energy transfer (HTRF), which measures phosphorylation of a peptide substrate. The LANCER Ultra kinase assay (PerkinElmer) uses a ULight™-labeled EIF4E-binding protein 1 (THR37/46) peptide (DYSTTPGGTLFSTTPGTRI (SEQ ID NO: 1)) substrate and a Europium-labeled anti-phospho-4E-BP1 antibody (CDK2, CDK1, CDK4, CDK6, CDK9, CDK12, CDK13) or ULight™-labeled Myelin Basic Protein peptide (VTPRTPPP (SEQ ID NO: 2)) substrate and a Europium-labeled anti-phospho-MBP antibody (CDK7). Each CDK enzyme activity assays utilized human CDK co-expressed as N-terminal GST-tagged protein with its full length cyclin partner using a baculovirus expression system.
Enzyme was pre-incubated with compounds for 30 minutes (CDK1,2,4,6,9) or 60 minutes (CDK7, CDK12, CDK13) prior to addition of ATP and Ulight-peptide (1 mM and 50 nM final, respectively), in assay buffer containing 50 mM HEPES pH 7.5, 1 mM EGTA, 10 mM MgCl2, 2 mM DTT, 0.05 mg/mL BSA, and 0.01% Tween 20. The reaction was then incubated for 60-90 minutes at room temperature. The reactions were stopped by the addition of EDTA and Europium labeled antibody, for a final concentration of 15 mM and 1.0-1.5 nM, respectively. HTRF signals were read after 15-120 minutes. A ratio of fluorescence transferred to the labeled substrate (665 nm) relative to fluorescence of the Europium donor (620 nm) represents the extent of phosphorylation. Ratios for treated wells were normalized to DMSO only (100% activity) and no enzyme (0% activity) controls. Normalized data was analyzed using a three or four parameter dose response curve to determine IC50 for each compound and are shown in Table A. Control reference inhibitors were included on each plate.

T1 sequence (Q9NYV4 whole entry): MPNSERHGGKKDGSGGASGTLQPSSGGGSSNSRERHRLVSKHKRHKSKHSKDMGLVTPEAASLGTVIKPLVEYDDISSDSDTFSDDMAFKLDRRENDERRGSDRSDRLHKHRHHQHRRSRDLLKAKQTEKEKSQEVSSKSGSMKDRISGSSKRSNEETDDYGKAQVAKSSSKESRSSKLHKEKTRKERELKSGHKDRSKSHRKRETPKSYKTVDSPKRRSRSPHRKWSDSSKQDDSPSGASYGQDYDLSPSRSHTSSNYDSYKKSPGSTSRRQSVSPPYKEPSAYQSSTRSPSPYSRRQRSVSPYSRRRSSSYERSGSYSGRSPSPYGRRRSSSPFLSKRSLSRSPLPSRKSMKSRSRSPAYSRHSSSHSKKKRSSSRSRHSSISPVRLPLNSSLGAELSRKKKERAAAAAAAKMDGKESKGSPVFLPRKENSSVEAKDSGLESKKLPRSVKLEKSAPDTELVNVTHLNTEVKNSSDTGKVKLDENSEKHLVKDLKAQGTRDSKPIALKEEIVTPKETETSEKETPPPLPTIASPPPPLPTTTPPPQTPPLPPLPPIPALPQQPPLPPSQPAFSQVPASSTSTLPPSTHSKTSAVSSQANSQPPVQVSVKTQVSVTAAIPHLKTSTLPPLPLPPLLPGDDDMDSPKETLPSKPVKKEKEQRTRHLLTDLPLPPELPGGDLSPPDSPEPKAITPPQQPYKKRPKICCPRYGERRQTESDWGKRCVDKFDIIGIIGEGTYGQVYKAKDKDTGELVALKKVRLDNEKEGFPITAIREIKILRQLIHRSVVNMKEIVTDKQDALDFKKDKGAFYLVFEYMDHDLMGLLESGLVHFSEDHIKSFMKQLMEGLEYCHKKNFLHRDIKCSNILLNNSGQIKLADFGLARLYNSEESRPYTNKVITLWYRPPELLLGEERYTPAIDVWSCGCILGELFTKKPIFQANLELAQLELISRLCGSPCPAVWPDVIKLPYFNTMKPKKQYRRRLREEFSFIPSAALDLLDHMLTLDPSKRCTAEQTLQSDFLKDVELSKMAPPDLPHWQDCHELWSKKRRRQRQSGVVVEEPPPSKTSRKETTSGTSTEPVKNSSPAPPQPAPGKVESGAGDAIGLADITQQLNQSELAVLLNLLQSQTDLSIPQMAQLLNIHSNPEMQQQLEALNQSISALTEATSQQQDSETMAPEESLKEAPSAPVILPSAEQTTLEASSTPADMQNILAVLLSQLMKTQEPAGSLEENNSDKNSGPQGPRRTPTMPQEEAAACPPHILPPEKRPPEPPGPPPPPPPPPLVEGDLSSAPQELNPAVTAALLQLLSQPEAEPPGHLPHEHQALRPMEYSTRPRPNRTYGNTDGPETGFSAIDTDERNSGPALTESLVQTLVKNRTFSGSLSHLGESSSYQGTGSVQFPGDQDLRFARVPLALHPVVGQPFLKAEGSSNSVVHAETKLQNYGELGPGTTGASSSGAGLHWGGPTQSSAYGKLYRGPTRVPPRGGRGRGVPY
T1 sequence (O75909 whole entry partner): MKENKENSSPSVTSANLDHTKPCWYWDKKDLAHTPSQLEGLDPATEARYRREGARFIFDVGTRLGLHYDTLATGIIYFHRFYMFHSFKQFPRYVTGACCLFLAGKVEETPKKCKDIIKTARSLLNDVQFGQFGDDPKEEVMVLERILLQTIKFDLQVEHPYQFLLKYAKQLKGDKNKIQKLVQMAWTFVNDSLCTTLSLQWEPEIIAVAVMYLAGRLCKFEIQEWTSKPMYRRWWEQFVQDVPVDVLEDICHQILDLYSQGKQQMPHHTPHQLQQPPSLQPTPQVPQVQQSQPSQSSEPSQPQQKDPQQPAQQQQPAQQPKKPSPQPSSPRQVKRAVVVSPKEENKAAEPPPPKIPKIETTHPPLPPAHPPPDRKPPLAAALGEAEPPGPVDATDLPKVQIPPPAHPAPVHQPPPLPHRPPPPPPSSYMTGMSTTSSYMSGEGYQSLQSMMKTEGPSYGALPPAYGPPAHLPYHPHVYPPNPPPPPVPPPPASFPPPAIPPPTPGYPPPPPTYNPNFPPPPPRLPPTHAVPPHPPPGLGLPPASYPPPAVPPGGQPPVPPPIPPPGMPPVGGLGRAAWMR

Structure (SMILES) | IC50 [nM]
COc1nc(N[C@@H]2CCC[C@H](N3Cc4ccc(NC(=O)/C=C/CF)cc4C3=O)C2)ncc1C#N [Example 57, (E)-N-(2-((1S,3R)-3-((5-Cyano-4-methoxypyrimidin-2-yl)amino)cyclohexyl)-3-oxoisoindolin-5-yl)-4-fluorobut-2-enamide] | 50 to 500
COc1nc(N[C@@H]2CCC[C@H](N3Cc4ccc(NC(=O)CBr)cc4C3=O)C2)ncc1C#N [Example 58, 2-Bromo-N-(2-((1S,3R)-3-((5-cyano-4-methoxypyrimidin-2-yl)amino)cyclohexyl)-3-oxoisoindolin-5-yl)acetamide] | < 50
COc1nc(N[C@@H]2CCC[C@H](N3Cc4ccc(NC(=O)CCl)cc4C3=O)C2)ncc1C#N [Example 59, 2-Chloro-N-(2-((1S,3R)-3-((5-cyano-4-methoxypyrimidin-2-yl)amino)cyclohexyl)-3-oxoisoindolin-5-yl)acetamide] | < 50
CC#CC(=O)Nc1ccc2c(c1)C(=O)N([C@H]1CCC[C@@H](Nc3ncc(C#N)c(OC)n3)C1)C2 [Example 60, N-(2-((1S,3R)-3-((5-Cyano-4-methoxypyrimidin-2-yl)amino)cyclohexyl)-3-oxoisoindolin-5-yl)but-2-ynamide] | 50 to 500
C=CC(=O)Nc1ccc2c(c1)C(=O)N([C@H]1CCC[C@@H](Nc3ncc(C(F)(F)F)c(OC)n3)C1)C2 [Example 61, N-(2-((1S,3R)-3-((4-Methoxy-5-(trifluoromethyl)pyrimidin-2-yl)amino)cyclohexyl)-3-oxoisoindolin-5-yl)acrylamide] | < 50
C=CC(=O)Nc1ccc2c(c1)C(=O)N([C@H]1CCC[C@@H](Nc3ncc(C(F)(F)F)c(N4CC[C@@H](N(C)C)C4)n3)C1)C2 [Example 62, N-(2-((1S,3R)-3-((4-((R)-3-(Dimethylamino)pyrrolidin-1-yl)-5-(trifluoromethyl)pyrimidin-2-yl)amino)cyclohexyl)-3-oxoisoindolin-5-yl)acrylamide] | < 50
COc1nc(N[C@@H]2CCC[C@H](N3Cc4ccc(NC(=O)/C=C/CN(C)C)cc4C3=O)C2)ncc1C#N [Example 63, (E)-N-(2-((1S,3R)-3-((5-Cyano-4-methoxypyrimidin-2-yl)amino)cyclohexyl)-3-oxoisoindolin-5-yl)-4-(dimethylamino)but-2-enamide] | < 50
C/C=C/C(=O)Nc1ccc2c(c1)C(=O)N([C@H]1CCC[C@@H](Nc3ncc(C#N)c(OC)n3)C1)C2 [Example 64, (E)-N-(2-((1S,3R)-3-((5-Cyano-4-methoxypyrimidin-2-yl)amino)cyclohexyl)-3-oxoisoindolin-5-yl)but-2-enamide] | > 500
C=CC(=O)N(C)c1ccc2c(c1)C(=O)N([C@H]1CCC[C@@H](Nc3ncc(C#N)c(OC)n3)C1)C2 [Example 65, N-(2-((1S,3R)-3-((5-Cyano-4-methoxypyrimidin-2-yl)amino)cyclohexyl)-3-oxoisoindolin-5-yl)-N-methylacrylamide] | < 50
C=CC(=O)Nc1ccc2c(c1)C(=O)N([C@H]1CCC[C@@H](Nc3ncc(C#N)c(NCC(C)(C)O)n3)C1)C2 [Example 66, N-(2-((1S,3R)-3-((5-Cyano-4-((2-hydroxy-2-methylpropyl)amino)pyrimidin-2-yl)amino)cyclohexyl)-3-oxoisoindolin-5-yl)acrylamide] | < 50
C=CC(=O)Nc1ccc2c(c1)C(=O)N([C@H]1CCC[C@@H](Nc3ncc(C#N)c(NC)n3)C1)C2 [Example 67, N-(2-((1S,3R)-3-((5-Cyano-4-(methylamino)pyrimidin-2-yl)amino)cyclohexyl)-3-oxoisoindolin-5-yl)acrylamide] | < 50
C=CC(=O)Nc1ccc2c(c1)C(=O)N([C@H]1CCC[C@@H](Nc3ncc(Br)cn3)C1)C2 [Example 68, N-(2-((1S,3R)-3-((5-Bromopyrimidin-2-yl)amino)cyclohexyl)-3-oxoisoindolin-5-yl)acrylamide] | < 50
C=CC(=O)Nc1cccc2c1ncn2[C@H]1CCC[C@@H](Nc2ncc(C#N)cn2)C1 [Example 69, N-(1-((1S,3R)-3-((5-Cyanopyrimidin-2-yl)amino)cyclohexyl)-1H-benzo[d]imidazol-4-yl)acrylamide] | < 50
C=CC(=O)Nc1ccc2c(c1)nc([C@H]1CC[C@@H](Nc3ncc(C#N)cn3)C1)n2C [Example 70, N-(2-((1S,3R)-3-((5-Cyanopyrimidin-2-yl)amino)cyclopentyl)-1-methyl-1H-benzo[d]imidazol-5-yl)acrylamide] | < 50
C=CC(=O)Nc1ccc2c(c1)nnn2[C@H]1CCC[C@@H](Nc2ncc(C#N)cn2)C1 [Example 71, N-(1-((1S,3R)-3-((5-Cyanopyrimidin-2-yl)amino)cyclohexyl)-1H-benzo[d][1,2,3]triazol-5-yl)acrylamide] | < 50
C=CC(=O)Nc1ccc2c(c1)nc([C@H]1CCC[C@@H](Nc3ncc(C(F)(F)F)cn3)C1)n2C [Example 72, N-(1-Methyl-2-((1S,3R)-3-((5-(trifluoromethyl)pyrimidin-2-yl)amino)cyclohexyl)-1H-benzo[d]imidazol-5-yl)acrylamide] | < 50
C=CC(=O)Nc1ccc2c(c1)nc([C@H]1CCC[C@@H](Nc3ncc(C#N)c(OC)n3)C1)n2C [Example 73, N-(2-((1S,3R)-3-((5-Cyano-4-methoxypyrimidin-2-yl)amino)cyclohexyl)-1-methyl-1H-benzo[d]imidazol-5-yl)acrylamide] | < 50
C=CC(=O)Nc1ccc2c(c1)nc([C@H]1CCC[C@@H](Nc3ncc(C#N)cn3)C1)n2C [Example 74, N-(2-((1S,3R)-3-((5-Cyanopyrimidin-2-yl)amino)cyclohexyl)-1-methyl-1H-benzo[d]imidazol-5-yl)acrylamide] | < 50
C=CC(=O)Nc1ccc2c(c1)C(=O)N([C@H]1CCC[C@@H](Nc3ncc(Br)c(C(F)(F)F)n3)C1)C2 [Example 75, N-(2-((1S,3R)-3-((5-Bromo-4-(trifluoromethyl)pyrimidin-2-yl)amino)cyclohexyl)-3-oxoisoindolin-5-yl)acrylamide] | < 50
C=CC(=O)Nc1ccc2c(c1)C(=O)N([C@H]1CCC[C@@H](Nc3ncc(C#N)c(N4CCOCC4)n3)C1)C2 [Example 76, N-(2-((1S,3R)-3-((5-Cyano-4-morpholinopyrimidin-2-yl)amino)cyclohexyl)-3-oxoisoindolin-5-yl)acrylamide] | < 50
C=CC(=O)Nc1ccc2c(c1)C(=O)N([C@H]1CCC[C@@H](Nc3ncc(C#N)c(N(C)C)n3)C1)C2 [Example 77, N-(2-((1S,3R)-3-((5-Cyano-4-(dimethylamino)pyrimidin-2-yl)amino)cyclohexyl)-3-oxoisoindolin-5-yl)acrylamide] | < 50
C=CC(=O)Nc1ccc2c(c1)C(=O)N([C@H]1CCC[C@@H](Nc3ncc(C(F)(F)F)c(NC)n3)C1)C2 [Example 78, N-(2-((1S,3R)-3-((4-(Methylamino)-5-(trifluoromethyl)pyrimidin-2-yl)amino)cyclohexyl)-3-oxoisoindolin-5-yl)acrylamide] | < 50
C=CC(=O)Nc1ccc2c(c1)ncn2[C@H]1CCC[C@@H](Nc2ncc(C#N)c(OC)n2)C1 [Example 79, N-(1-((1S,3R)-3-((5-Cyano-4-methoxypyrimidin-2-yl)amino)cyclohexyl)-1H-benzo[d]imidazol-5-yl)acrylamide] | < 50
C=C(Cl)C(=O)Nc1ccc2c(c1)nc([C@H]1CCC[C@@H](Nc3ncc(C#N)c(OC)n3)C1)n2C [Example 80, 2-Chloro-N-(2-((1S,3R)-3-((5-cyano-4-methoxypyrimidin-2-yl)amino)cyclohexyl)-1-methyl-1H-benzo[d]imidazol-5-yl)acrylamide] | < 50
C=CC(=O)Nc1ccc2c(c1)C(=O)N([C@H]1CCC[C@@H](Nc3ncc(Cl)c(OC)n3)C1)C2 [Example 81, N-(2-((1S,3R)-3-((5-Chloro-4-methoxypyrimidin-2-yl)amino)cyclohexyl)-3-oxoisoindolin-5-yl)acrylamide] | < 50
C=CC(=O)Nc1ccc2c(c1)C(=O)N([C@H]1CCC[C@@H](Nc3ncc(Cl)cn3)C1)C2 [Example 82, N-(2-((1S,3R)-3-((5-Chloropyrimidin-2-yl)amino)cyclohexyl)-3-oxoisoindolin-5-yl)acrylamide] | < 50
C=CC(=O)Nc1ccc2c(c1)C(=O)N([C@H]1CCC[C@@H](Nc3ncc(C#N)c(OC)n3)C1)C2 [Example 83, N-(2-((1S,3R)-3-((5-Cyano-4-methoxypyrimidin-2-yl)amino)cyclohexyl)-3-oxoisoindolin-5-yl)acrylamide] | < 50
